pIC50: −log10 of the molar value. A value given as a limit tells only on which side of the number the result lay.

This experiment has as its target T1, JAK3 (Homo sapiens, UniProt P52333).
T1 construct: endogenous in cells; host or cells: mixed Molt4/Ramos lysate (1:2)
T1 sequence (P52333 1-1124): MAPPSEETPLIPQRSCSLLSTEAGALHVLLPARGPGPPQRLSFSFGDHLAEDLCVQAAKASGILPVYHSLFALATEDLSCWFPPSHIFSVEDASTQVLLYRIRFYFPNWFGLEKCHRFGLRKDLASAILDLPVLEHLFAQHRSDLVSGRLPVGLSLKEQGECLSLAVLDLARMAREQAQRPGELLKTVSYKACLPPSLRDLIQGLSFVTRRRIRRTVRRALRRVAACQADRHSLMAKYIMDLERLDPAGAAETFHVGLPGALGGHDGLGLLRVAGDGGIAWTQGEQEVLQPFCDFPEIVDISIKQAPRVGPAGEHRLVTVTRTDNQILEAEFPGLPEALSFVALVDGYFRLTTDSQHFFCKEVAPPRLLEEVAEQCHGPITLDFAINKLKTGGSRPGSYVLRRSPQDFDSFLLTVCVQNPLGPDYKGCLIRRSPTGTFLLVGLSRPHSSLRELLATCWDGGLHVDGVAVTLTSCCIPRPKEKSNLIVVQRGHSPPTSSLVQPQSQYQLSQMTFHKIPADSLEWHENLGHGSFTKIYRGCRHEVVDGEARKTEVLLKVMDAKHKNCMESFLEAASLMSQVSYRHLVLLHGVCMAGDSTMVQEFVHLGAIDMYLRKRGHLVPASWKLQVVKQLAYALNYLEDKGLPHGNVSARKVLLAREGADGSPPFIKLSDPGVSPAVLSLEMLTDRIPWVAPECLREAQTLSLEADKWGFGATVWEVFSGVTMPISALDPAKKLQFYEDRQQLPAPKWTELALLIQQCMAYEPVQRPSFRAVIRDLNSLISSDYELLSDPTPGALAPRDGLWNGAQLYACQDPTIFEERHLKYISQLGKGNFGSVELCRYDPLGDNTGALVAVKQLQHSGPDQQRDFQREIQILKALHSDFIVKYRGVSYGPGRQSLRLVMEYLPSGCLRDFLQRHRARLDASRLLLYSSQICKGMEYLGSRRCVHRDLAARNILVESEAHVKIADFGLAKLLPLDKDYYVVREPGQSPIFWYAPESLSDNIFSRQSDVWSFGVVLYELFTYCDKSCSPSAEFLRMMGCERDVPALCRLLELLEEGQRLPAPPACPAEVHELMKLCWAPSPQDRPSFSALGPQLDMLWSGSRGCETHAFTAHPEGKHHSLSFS
Nature of the experiment: Kinobeads assay, JAK3. It is filed as binding. The settings on record: mixed Molt4/Ramos lysate, read-out: Inhibition values (IC50) JAK3. As for the experimental part:
The compounds of the present invention as described in the previous examples were tested in a Kinobeads™ assay as described for ZAP-70 (WO-A 2007/137867). Briefly, test compounds (at various concentrations) and the affinity matrix with the immobilized aminopyrido-pyrimidine ligand 24 were added to cell lysate aliquots and allowed to bind to the proteins in the lysate sample. After the incubation time the beads with captured proteins were separated from the lysate. Bound proteins were then eluted and the presence of JAK2 and JAK3 was detected and quantified using specific antibodies in a dot blot procedure and the Odyssey infrared detection system. Dose response curves for individual kinases were generated and IC50 values calculated. Kinobeads™ assays for ZAP-70 (WO-A 2007/137867) and for kinase selectivity profiling (WO-A 2006/134056) have been previously described.
The affinity matrix was washed two times with 15 mL of 1×DP buffer containing 0.2% NP40 (IGEPAL® CA-630, Sigma, #I3021) and then resuspended in 1×DP buffer containing 0.2% NP40 (3% beads slurry).
5×DP buffer 250 mM Tris-HCl pH 7.4, 25% Glycerol, 7.5 mM MgCl2, 750 mM NaCl, 5 mM Na3VO4; filter the 5×DP buffer through a 0.22 μm filter and store in aliquots at −80° C. The 5×DP buffer is diluted with H2O to 1×DP buffer containing 1 mM DTT and 25 mM NaF.
Stock solutions of test compounds were prepared in DMSO. In a 96 well plate 30 μL solution of diluted test compounds at 5 mM in DMSO were prepared. Starting with this solution a 1:3 dilution series (9 steps) was prepared. For control experiments (no test compound) a buffer containing 2% DMSO was used.
Molt4 cells (ATCC catalogue number CRL-1582) and Ramos cells (ATCC catalogue number CRL-1596) were grown in 1 L Spinner flasks (Integra Biosciences, #182101) in suspension in RPMI 1640 medium (Invitrogen, #21875-034) supplemented with 10% Fetal Bovine Serum (Invitrogen) at a density between 0.15×106 and 1.2×10^6 cells/mL. Cells were harvested by centrifugation, washed once with 1×PBS buffer (Invitrogen, #14190-094) and cell pellets were frozen in liquid nitrogen and subsequently stored at −80° C. Cells were homogenized in a Potter S homogenizer in lysis buffer: 50 mM Tris-HCl, 0.8% NP40, 5% glycerol, 150 mM NaCl, 1.5 mM MgCl2, 25 mM NaF, 1 mM sodium vanadate, 1 mM DTT, pH 7.5. One complete EDTA-free tablet (protease inhibitor cocktail, Roche Diagnostics, 1873580) per 25 mL buffer was added. The material was dounced 10 times using a mechanized POTTER S, transferred to 50 mL falcon tubes, incubated for 30 minutes on ice and spun down for 10 minutes at 20,000 g at 4° C. (10,000 rpm in Sorvall SLA600, precooled). The supernatant was transferred to an ultracentrifuge (UZ)-polycarbonate tube (Beckmann, 355654) and spun for 1 hour at 100,000 g at 4° C. (33.500 rpm in Ti50.2, precooled). The supernatant was transferred again to a fresh 50 mL falcon tube, the protein concentration was determined by a Bradford assay (BioRad) and samples containing 50 mg of protein per aliquot were prepared. The samples were immediately used for experiments or frozen in liquid nitrogen and stored frozen at −80° C.
Cell lysate (approximately 50 mg protein per plate) was thawed in a water bath at room temperature and then stored on ice. To the thawed cell lysate 1×DP 0.8% NP40 buffer containing protease inhibitors (1 tablet for 25 mL buffer; EDTA-free protease inhibitor cocktail; Roche Diagnostics 1873580) was added in order to reach a final protein concentration of 10 mg/mL total protein. The diluted cell lysate was stored on ice. Mixed Molt4/Ramos lysate was prepared by combining one volume of Molt4 lysate and two volumes of Ramos lysate (ratio 1:2).
To a 96 well filter plate (Multiscreen HTS, BV Filter Plates, Millipore #MSBVN1250) were added per well: 100 μL affinity matrix (3% beads slurry), 3 μL of compound solution, and 50 μL of diluted lysate. […]
For `Cn1cc(Nc2ncc3cnn(Cc4cccc(N5CCOCC5=O)c4F)c3n2)cn1` [Example 40, 4-(2-Fluoro-3-((6-((1-methyl-1H-pyrazol-4-yl)amino)-1H-pyrazolo[3,4-d]pyrimidin-1-yl)methyl)phenyl)morpholin-3-one], the pIC50 was over 7.00.
With `CNCC1(Cn2cc(Nc3ncc4cnn(Cc5cccc(N6CCOCC6)c5)c4n3)cn2)COC1` [Example 41, N-(1-((3-((Methylamino)methyl)oxetan-3-yl)methyl)-1H-pyrazol-4-yl)-1-(3-morpholinobenzyl)-1H-pyrazolo[3,4-d]pyrimidin-6-amine], the pIC50 was over 7.00.
Take `Cn1cc(Nc2ncc3cnn(Cc4cccc(N5CC6(COC6)C5)c4)c3n2)cn1` [Example 89, 1-(3-(2-oxa-6-azaspiro[3.3]heptan-6-yl)benzyl)-N-(1-methyl-1H-pyrazol-4-yl)-1H-pyrazolo[3,4-d]pyrimidin-6-amine]: the pIC50 is over 7.00.
The figure for `Cn1cc(Nc2ncc3cnn(Cc4cc(F)cc(N5CC6(COC6)C5)c4)c3n2)cn1` [Example 90, 1-(3-fluoro-5-(2-oxa-6-azaspiro[3.3]heptan-6-yl)benzyl)-N-(1-methyl-1H-pyrazol-4-yl)-1H-pyrazolo[3,4-d]pyrimidin-6-amine] is over 7.00; for `Cn1cc(Nc2ncc3cnn(Cc4cccc(N5CC6(COC6)C5)c4F)c3n2)cn1` [Example 91, 1-(2-fluoro-3-(2-oxa-6-azaspiro[3.3]heptan-6-yl)benzyl)-N-(1-methyl-1H-pyrazol-4-yl)-1H-pyrazolo[3,4-d]pyrimidin-6-amine] it is over 7.00.
Under `Cn1cc(Nc2ncc3cnn(Cc4cc(F)cc(N5CCNCC5)c4)c3n2)cn1` [Example 92, 1-(3-fluoro-5-(piperazin-1-yl)benzyl)-N-(1-methyl-1H-pyrazol-4-yl)-1H-pyrazolo[3,4-d]pyrimidin-6-amine] stands over 7.00; under `OCCn1cc(Nc2ncc3cnn(Cc4cc(F)cc(N5CCNCC5)c4)c3n2)cn1` [Example 93, 2-(4-((1-(3-fluoro-5-(piperazin-1-yl)benzyl)-1H-pyrazolo[3,4-d]pyrimidin-6-yl)amino)-1H-pyrazol-1-yl)ethanol], over 7.00; under `Fc1cc(N2CCOCC2)c(F)c(Cn2ncc3cnc(Nc4cnn(CC5CCNC5)c4)nc32)c1F` (stereo not drawn) [Example 94, N-(1-(pyrrolidin-3-ylmethyl)-1H-pyrazol-4-yl)-1-(2,3,6-trifluoro-5-morpholinobenzyl)-1H-pyrazolo[3,4-d]pyrimidin-6-amine], over 7.00.
The figure for `Cn1cc(Nc2ncc3cnn(Cc4cc(F)cc(N5CCNCC5)c4F)c3n2)cn1` [Example 95, 1-(2,5-difluoro-3-(piperazin-1-yl)benzyl)-N-(1-methyl-1H-pyrazol-4-yl)-1H-pyrazolo[3,4-d]pyrimidin-6-amine] is over 7.00; for `OCCn1cc(Nc2ncc3cnn(Cc4cc(F)cc(N5CCNCC5)c4F)c3n2)cn1` [Example 96, 2-(4-((1-(2,5-difluoro-3-(piperazin-1-yl)benzyl)-1H-pyrazolo[3,4-d]pyrimidin-6-yl)amino)-1H-pyrazol-1-yl)ethanol] it is over 7.00; for `CN(C)CC(F)Cn1cc(Nc2ncc3cnn(Cc4cc(F)cc(N5CCOCC5=O)c4)c3n2)cn1` (stereo not drawn) [Example 97, 4-(3-((6-((1-(3-(dimethylamino)-2-fluoropropyl)-1H-pyrazol-4-yl)amino)-1H-pyrazolo[3,4-d]pyrimidin-1-yl)methyl)-5-fluorophenyl)morpholin-3-one] it is over 7.00.
For `Cn1cc(Nc2ncc3cnn(Cc4cc(C(=O)N5CCOCC5)cc(F)c4F)c3n2)cn1` [Example 98, (3,4-difluoro-5-((6-((1-methyl-1H-pyrazol-4-yl)amino)-1H-pyrazolo[3,4-d]pyrimidin-1-yl)methyl)phenyl)(morpholino)methanone], the pIC50 is over 7.00.
Under `CNCCCn1cc(Nc2ncc3cnn(Cc4cc(F)cc(N5CCOCC5=O)c4)c3n2)cn1` [Example 99, 4-(3-fluoro-5-((6-((1-(3-(methylamino)propyl)-1H-pyrazol-4-yl)amino)-1H-pyrazolo[3,4-d]pyrimidin-1-yl)methyl)phenyl)morpholin-3-one] stands over 7.00; under `Cn1cc(Nc2ncc3cnn(Cc4cccc(N5CCN(S(C)(=O)=O)CC5)c4)c3n2)cn1` [Example 100, N-(1-methyl-1H-pyrazol-4-yl)-1-(3-(4-(methylsulfonyl)piperazin-1-yl)benzyl)-1H-pyrazolo[3,4-d]pyrimidin-6-amine], over 7.00.
Under `O=C1COCCN1c1cc(F)cc(Cn2ncc3cnc(Nc4cnn(CC5CCNC5)c4)nc32)c1` (stereo not drawn) [Example 101, 4-(3-fluoro-5-((6-((1-(pyrrolidin-3-ylmethyl)-1H-pyrazol-4-yl)amino)-1H-pyrazolo[3,4-d]pyrimidin-1-yl)methyl)phenyl)morpholin-3-one] stands over 7.00.
`O=C1COCCN1c1cc(F)cc(Cn2ncc3cnc(Nc4cnn(C5CCNCC5)c4)nc32)c1` [Example 102, 4-(3-fluoro-5-((6-((1-(piperidin-4-yl)-1H-pyrazol-4-yl)amino)-1H-pyrazolo[3,4-d]pyrimidin-1-yl)methyl)phenyl)morpholin-3-one]: the pIC50 is over 7.00.
The figure for `Cn1cc(Nc2ncc3cnn(Cc4cccc(N5CCOCC5)c4Cl)c3n2)cn1` [Example 103, 1-(2-chloro-3-morpholinobenzyl)-N-(1-methyl-1H-pyrazol-4-yl)-1H-pyrazolo[3,4-d]pyrimidin-6-amine] is over 7.00; for `Cn1cc(Nc2ncc3cnn(Cc4cccc(N5CCC6(COC6)C5)c4)c3n2)cn1` [Example 104, 1-(3-(2-oxa-6-azaspiro[3.4]octan-6-yl)benzyl)-N-(1-methyl-1H-pyrazol-4-yl)-1H-pyrazolo[3,4-d]pyrimidin-6-amine] it is 6.00 to 7.00.

The values are drawn from patent publication US9040545B2, “Heterocyclyl pyrazolopyrimidine analogues as selective JAK inhibitors” (Cellzome Limited, priority 2010, dated 2015).
